Data as given in patent publication US5840684A, “Glycopeptide antibiotic derivatives” (Eli Lilly and Company, priority 1995, dated 1998).
Converted amounts (≈) assume the structure as drawn.

Legend:
[1] = tested on: vancomycin-resistant enterococci; test: broth micro-dilution, mean geometric MIC; format: cell-based, Enterococcus faecium and Enterococcus faecalis; conditions: enterococci, 24-hour incubation
[2] = tested on: Staphylococcus aureus S13E; format: cell-based
Protocol: (§1) The MIC's were determined using a standard broth micro-dilution assay.

[3] = tested on: Haemophilus influenzae RD; test: broth micro-dilution MIC; format: cell-based; conditions: Haemophilus influenzae RD
Protocol: (§2) The formula I compounds have in vitro and in vivo activity against Gram-positive pathogenic bacteria. The MIC's were determined using a standard broth micro-dilution assay.

[4] = tested on: Staphylococcus epidermidis 270; test: broth micro-dilution MIC; format: cell-based
Protocol: as §2

[5] = tested on: Staphylococcus haemolyticus 415; test: broth micro-dilution MIC; format: cell-based
Protocol: as §2

[6] = tested on: Staphylococcus haemolyticus 105; test: broth micro-dilution MIC; format: cell-based
Protocol: as §2

[7] = tested on: Streptococcus pneumoniae P1; test: broth micro-dilution MIC; format: cell-based
Protocol: as §2

Entercoccus faecium 180 = test: broth micro-dilution MIC; format: cell-based; conditions: Entercoccus faecium 180
Protocol: as §2

[8] = tested on: vancomycin-susceptible enterococci; test: broth micro-dilution, mean geometric MIC; format: cell-based, Enterococcus faecium and Enterococcus faecalis; conditions: enterococci, 24-hour incubation
[9] = tested on: Streptococcus pyogenes C203; test: broth micro-dilution MIC; format: cell-based
Protocol: as §1

[10] = tested on: Staphylococcus aureus SA1199A; test: broth micro-dilution MIC; format: cell-based
Protocol: as §1

[11] = tested on: Staphylococcus aureus X400; test: broth micro-dilution MIC; format: cell-based
Protocol: as §1

Entercoccus faecium 276 = test: broth micro-dilution MIC; format: cell-based
Protocol: as §1

[12] = tested on: Staphylococcus aureus 447; test: broth micro-dilution MIC; format: cell-based
Protocol: as §1

[13] = tested on: Staphylococcus aureus 489; test: broth micro-dilution MIC; format: cell-based
Protocol: as §1

[14] = tested on: Staphylococcus aureus 446; test: broth micro-dilution MIC; format: cell-based
Protocol: as §1

[15] = tested on: Entercoccus faecium 180-1; test: broth micro-dilution MIC; format: cell-based
Protocol: as §1

[16] = tested on: Staphylococcus aureus SA1199B; format: cell-based
Protocol: as §1

Entercoccus faecium 2041 = test: broth micro-dilution MIC; format: cell-based; conditions: Entercoccus faecium 2041
Protocol: as §2

[17] = tested on: Enterococcus gallinarum 245; test: broth micro-dilution MIC; format: cell-based; conditions: Enterococcus gallinarum 245
Protocol: as §2

[18] = tested on: Staphylococcus aureus SA1199; test: broth micro-dilution MIC; format: cell-based
Protocol: as §1

[19] = tested on: Staphylococcus aureus X778; test: broth micro-dilution MIC; format: cell-based
Protocol: as §1

Row | SMILES | mean geometric MIC, Vancomycin Resistant Strains [1] [µg/mL] | MIC [2] [µg/mL] | MIC [3] [µg/mL] | MIC [4] [µg/mL] | MIC [5] [µg/mL] | MIC [6] [µg/mL] | MIC [7] [µg/mL] | MIC (Entercoccus faecium 180) [µg/mL] | mean geometric MIC, Vancomycin Sensitive Strains [8] [µg/mL] | MIC [9] [µg/mL] | MIC [10] [µg/mL] | MIC (Entercoccus faecium 276) [µg/mL] | MIC [12] [µg/mL] | MIC [14] [µg/mL] | MIC [15] [µg/mL] | MIC [16] [µg/mL] | MIC (Entercoccus faecium 2041) [µg/mL] | MIC [17] [µg/mL] | MIC [18] [µg/mL] | MIC [19] [µg/mL] | further results
1 | CNC(CC(C)C)C(=O)NC1C(=O)NC(CC(N)=O)C(=O)NC2C(=O)NC3C(=O)NC(C(=O)NC(C(=O)O)c4cc(O)cc(O)c4-c4cc3ccc4O)C(OC3CC(C)(N)C(O)C(C)O3)c3ccc(c(Cl)c3)Oc3cc2cc(c3OC2OC(CO)C(O)C(O)C2OC2CC(C)(NCc3c(OC)ccc4ccccc34)C(O)C(C)O2)Oc2ccc(cc2Cl)C1O (stereo not shown) [Compound 9] | 11 | 0.5 (≈ 0.284 µM) | ≤ 0.06 | 16 (≈ 9.08 µM) | 4 (≈ 2.27 µM) | 4 (≈ 2.27 µM) | ≤ 0.06 | 1 (≈ 0.567 µM) | 0.38 | ≤ 0.06 | ≤ 0.06 | 0.26 (≈ 0.148 µM) | 4 (≈ 2.27 µM) | 2 (≈ 1.13 µM) | ≤ 0.06 |  |  |  |  |  | MIC [11]: 0.5 µg/mL (≈ 0.284 µM); MIC [13]: 0.5 µg/mL (≈ 0.284 µM)
2 | CNC(CC(C)C)C(=O)NC1C(=O)NC(CC(N)=O)C(=O)NC2C(=O)NC3C(=O)NC(C(=O)NC(C(=O)O)c4cc(O)cc(O)c4-c4cc3ccc4O)C(OC3CC(C)(N)C(O)C(C)O3)c3ccc(c(Cl)c3)Oc3cc2cc(c3OC2OC(CO)C(O)C(O)C2OC2CC(C)(NCc3ccc(OC(F)F)cc3)C(O)C(C)O2)Oc2ccc(cc2Cl)C1O (stereo not shown) [Compound 72] | 4.7 | ≤ 0.06 | 32 (≈ 18.3 µM) |  | 4 (≈ 2.29 µM) | 1 (≈ 0.572 µM) |  | 0.5 (≈ 0.286 µM) | 0.28 |  | ≤ 0.06 | ≤ 0.06 | 1 (≈ 0.572 µM) | 2 (≈ 1.14 µM) | ≤ 0.06 | ≤ 0.06 | ≤ 0.06 | 4 (≈ 2.29 µM) | 1 (≈ 0.572 µM) |  | MIC [13]: ≤ 0.06 µg/mL
3 | CNC(CC(C)C)C(=O)NC1C(=O)NC(CC(N)=O)C(=O)NC2C(=O)NC3C(=O)NC(C(=O)NC(C(=O)O)c4cc(O)cc(O)c4-c4cc3ccc4O)C(OC3CC(C)(N)C(O)C(C)O3)c3ccc(c(Cl)c3)Oc3cc2cc(c3OC2OC(CO)C(O)C(O)C2OC2CC(C)(NCc3ccc(N(C)c4ccccc4)cc3)C(O)C(C)O2)Oc2ccc(cc2Cl)C1O (stereo not shown) [Compound 178] | 2.8 | 0.5 (≈ 0.28 µM) | 4 (≈ 2.24 µM) | 0.25 (≈ 0.14 µM) | 2 (≈ 1.12 µM) | 1 (≈ 0.559 µM) | ≤ 0.06 | 0.25 (≈ 0.14 µM) | 0.13 | ≤ 0.06 | ≤ 0.06 | 0.5 (≈ 0.28 µM) | 0.5 (≈ 0.28 µM) | 1 (≈ 0.559 µM) | ≤ 0.06 | 1 (≈ 0.559 µM) | ≤ 0.06 | 2 (≈ 1.12 µM) | 1 (≈ 0.559 µM) | 1 (≈ 0.559 µM) | 
4 | CNC(CC(C)C)C(=O)NC1C(=O)NC(CC(N)=O)C(=O)NC2C(=O)NC3C(=O)NC(C(=O)NC(C(=O)O)c4cc(O)cc(O)c4-c4cc3ccc4O)C(OC3CC(C)(N)C(O)C(C)O3)c3ccc(c(Cl)c3)Oc3cc2cc(c3OC2OC(CO)C(O)C(O)C2OC2CC(C)(NCCCCCCCCOc3ccc(OC)cc3)C(O)C(C)O2)Oc2ccc(cc2Cl)C1O (stereo not shown) [Compound 200] | 1.4 | 0.5 (≈ 0.274 µM) | 32 (≈ 17.5 µM) |  | 2 (≈ 1.09 µM) | 1 (≈ 0.547 µM) | ≤ 0.06 |  | 0.041 | ≤ 0.06 | ≤ 0.06 | 0.5 (≈ 0.274 µM) | 0.5 (≈ 0.274 µM) | 1 (≈ 0.547 µM) | ≤ 0.06 | 1 (≈ 0.547 µM) | ≤ 0.06 | 2 (≈ 1.09 µM) | 1 (≈ 0.547 µM) | 0.5 (≈ 0.274 µM) | MIC [11]: 1 µg/mL (≈ 0.547 µM)
5 | CNC(CC(C)C)C(=O)NC1C(=O)NC(CC(N)=O)C(=O)NC2C(=O)NC3C(=O)NC(C(=O)NC(C(=O)O)c4cc(O)cc(O)c4-c4cc3ccc4O)C(OC3CC(C)(N)C(O)C(C)O3)c3ccc(c(Cl)c3)Oc3cc2cc(c3OC2OC(CO)C(O)C(O)C2OC2CC(C)(NCc3ccc(-c4ccccc4C)cc3)C(O)C(C)O2)Oc2ccc(cc2Cl)C1O (stereo not shown) [Compound 209] | 1.2 | 0.5 (≈ 0.282 µM) | 16 (≈ 9.03 µM) | 0.15 (≈ 0.0846 µM) | 1 (≈ 0.564 µM) | 0.5 (≈ 0.282 µM) | ≤ 0.06 | ≤ 0.06 | 0.136 | ≤ 0.06 | ≤ 0.06 |  | 1 (≈ 0.564 µM) | 1 (≈ 0.564 µM) | ≤ 0.06 | 0.5 (≈ 0.282 µM) | ≤ 0.06 | 1 (≈ 0.564 µM) |  | 1 (≈ 0.564 µM) | MIC [11]: 1 µg/mL (≈ 0.564 µM); MIC [13]: 1 µg/mL (≈ 0.564 µM)
6 | CNC(CC(C)C)C(=O)NC1C(=O)NC(CC(N)=O)C(=O)NC2C(=O)NC3C(=O)NC(C(=O)NC(C(=O)O)c4cc(O)cc(O)c4-c4cc3ccc4O)C(OC3CC(C)(N)C(O)C(C)O3)c3ccc(c(Cl)c3)Oc3cc2cc(c3OC2OC(CO)C(O)C(O)C2OC2CC(C)(NCc3ccc(-c4ccc(C)c(C)c4)cc3)C(O)C(C)O2)Oc2ccc(cc2Cl)C1O (stereo not shown) [Compound 221] | 0.71 | 0.5 (≈ 0.28 µM) | 32 (≈ 17.9 µM) |  | 2 (≈ 1.12 µM) | 1 (≈ 0.56 µM) | ≤ 0.06 | ≤ 0.06 | 0.041 | ≤ 0.06 | ≤ 0.06 |  | 0.5 (≈ 0.28 µM) | 1 (≈ 0.56 µM) | ≤ 0.06 | 1 (≈ 0.56 µM) | ≤ 0.06 | 2 (≈ 1.12 µM) | 1 (≈ 0.56 µM) | 0.5 (≈ 0.28 µM) | MIC [11]: 0.5 µg/mL (≈ 0.28 µM)
7 | CNC(CC(C)C)C(=O)NC1C(=O)NC(CC(N)=O)C(=O)NC2C(=O)NC3C(=O)NC(C(=O)NC(C(=O)O)c4cc(O)cc(O)c4-c4cc3ccc4O)C(OC3CC(C)(N)C(O)C(C)O3)c3ccc(c(Cl)c3)Oc3cc2cc(c3OC2OC(CO)C(O)C(O)C2OC2CC(C)(NCc3ccc(-c4ccc(C)cc4)cc3C)C(O)C(C)O2)Oc2ccc(cc2Cl)C1O (stereo not shown) [Compound 222] | 0.84 | ≤ 0.06 | 32 (≈ 17.9 µM) | 0.5 (≈ 0.28 µM) | 1 (≈ 0.56 µM) | 1 (≈ 0.56 µM) | ≤ 0.06 | ≤ 0.06 | 0.072 | ≤ 0.06 |  | ≤ 0.06 | 0.5 (≈ 0.28 µM) |  | ≤ 0.06 |  | ≤ 0.06 | 1 (≈ 0.56 µM) | 1 (≈ 0.56 µM) | ≤ 0.06 | 
8 | CNC(CC(C)C)C(=O)NC1C(=O)NC(CC(N)=O)C(=O)NC2C(=O)NC3C(=O)NC(C(=O)NC(C(=O)O)c4cc(O)cc(O)c4-c4cc3ccc4O)C(OC3CC(C)(N)C(O)C(C)O3)c3ccc(c(Cl)c3)Oc3cc2cc(c3OC2OC(CO)C(O)C(O)C2OC2CC(C)(NCc3ccc(-c4cccc(C)c4)cc3)C(O)C(C)O2)Oc2ccc(cc2Cl)C1O (stereo not shown) [Compound 224] | 0.63 |  | 32 (≈ 18.1 µM) |  | 0.5 (≈ 0.282 µM) | 1 (≈ 0.564 µM) | ≤ 0.06 | ≤ 0.06 | 0.055 | ≤ 0.06 | ≤ 0.06 | ≤ 0.06 | 0.5 (≈ 0.282 µM) | 0.5 (≈ 0.282 µM) | ≤ 0.06 | 0.5 (≈ 0.282 µM) | ≤ 0.06 | 0.5 (≈ 0.282 µM) |  |  | 
